The values below are quoted from earlier work in patent US20150231092A1, “NOVEL EFFERVESCENT SACHET FORMULATIONS OF DAPOXETINE AND A PDE5 INHIBITOR” (Sanovell IIac Sanayi Ve Ticaret Anonim Sirketi, priority 2012, published 2015).

The structures appear in SMILES notation.

The conditions of series [1]: following oral administration.
The conditions of series [2]: following oral administration. This is another data set of the same source.

With `CN(C)[C@@H](CCOc1cccc2ccccc12)c1ccccc1` [dapoxetine], the “binding to plasma proteins” value in series [1] is “almost completely binding to plasma proteins”.

Regarding `CN1CC(=O)N2[C@H](c3ccc4c(c3)OCO4)c3[nH]c4ccccc4c3C[C@@H]2C1=O` [tadalafil, (6R-trans)-6-(1,3-benzodioxol-5-yl)-2,3,6,7,12,12a-hexahydro-2-methyl-pyrazino[1′,2′:1,6]pyrido[3,4-b]indole-1,4-dione], the solubility in water entry was “poorly soluble in water”. In series [2], the onset of action was 15 min and the “onset of action takes (second sentence; apparently action time)” value is “up to 36 hours”.
